Measured values taken from US20090208517A1, “Preparation Of Antigen-Presenting Human Gamma-Delta T Cells And Use In Immunotherapy” (priority 2004, published 2009).

Tested on: naïve CD4^+ αβ T cells
Assay type: cell-based, human

Substance: phytohemagglutinin [PHA]
- Vβ2^+ (%) responder cells: 9%
- selective expansion of Vβ2^+ T cells (in words): does not result in selective expansion of Vβ2^+ T cells
